Tests used:
Conditions in all cases: 72 h
[1] = test system: Calu-3; experiment: cell viability relative to DMSO; higher = less toxic
[2] = test system: Caco-2; experiment: as above
[3] = test system: HepG2; experiment: as above
[4] = test system: Vero E6; experiment: as above
[5] = test system: U2OS; experiment: as above
[6] = test system: Calu-3; experiment: drug sensitivity score (DSS) for viability; higher = more toxic; extreme values may be limits of the assay
[7] = test system: Caco-2; experiment: as above
[8] = test system: HepG2; experiment: as above
[9] = test system: Vero E6; experiment: as above
[10] = test system: U2OS; experiment: as above
[11] = test system: Calu-3; experiment: relative viability EC50 (midpoint between 100% and the lowest measured viability); higher = less toxic
[12] = test system: Caco-2; experiment: as above
[13] = test system: HepG2; experiment: as above
[14] = test system: Vero E6; experiment: as above
[15] = test system: U2OS; experiment: as above

Row | Compound | cell viability ([1]; 1 nM) | cell viability ([1]; 10 nM) | cell viability ([1]; 100 nM) | cell viability ([1]; 1000 nM) | cell viability ([1]; 10000 nM) | cell viability ([2]; 1 nM) | cell viability ([2]; 10 nM) | cell viability ([2]; 100 nM) | cell viability ([2]; 1000 nM) | cell viability ([2]; 10000 nM) | cell viability ([3]; 1 nM) | cell viability ([3]; 10 nM) | cell viability ([3]; 100 nM) | cell viability ([3]; 1000 nM) | cell viability ([3]; 10000 nM) | cell viability ([4]; 1 nM) | cell viability ([4]; 10 nM) | cell viability ([4]; 100 nM) | cell viability ([4]; 1000 nM) | cell viability ([4]; 10000 nM) | cell viability ([5]; 1 nM) | cell viability ([5]; 10 nM) | cell viability ([5]; 100 nM) | cell viability ([5]; 1000 nM) | cell viability ([5]; 10000 nM) | drug sensitivity score [6] | drug sensitivity score [7] | drug sensitivity score [8] | drug sensitivity score [9] | drug sensitivity score [10] | relative viability EC50 [11] | relative viability EC50 [12] | relative viability EC50 [13] | relative viability EC50 [14] | relative viability EC50 [15]
1 | COc1nc(C)nc(Cl)c1NC1=NCCN1 [moxonidine] | 96.2% | 93.5% | 90% | 101% | 97.5% | 97.1% | 95.6% | 95.8% | 105% | 88.7% | 103% | 101% | 99.3% | 104% | 95.5% | 102% | 100% | 93.2% | 94.5% | 106% | 98.7% | 101% | 97.1% | 102% | 99.3% | 0 | 0 | 0 | 0 | 0 | > 10 µM | > 10 µM | > 10 µM | > 10 µM | > 10 µM
2 | Cc1ccccc1/N=N/c1ccc(/N=N/c2c(O)ccc3ccccc23)c(C)c1 [sudan-IV] | 98.2% | 107% | 96.6% | 107% | 95.2% | 96.3% | 119% | 113% | 120% | 94.5% | 96.3% | 111% | 104% | 81.2% | 92.7% | 104% | 100% | 104% | 110% | 87.4% | 97.8% | 102% | 93.3% | 95.3% | 90.5% | 0 | 0 | 2.2 | 0 | 0 | > 10 µM | > 10 µM | > 10 µM | > 10 µM | > 10 µM
3 | CCCCNC(=O)NS(=O)(=O)c1ccc(C)cc1 [tolbutamide] | 95.1% | 90.2% | 95.7% | 107% | 94.3% | 101% | 96.7% | 96.2% | 96.3% | 96.3% | 87.5% | 98% | 103% | 94.3% | 99.9% | 104% | 103% | 105% | 102% | 97.4% | 101% | 98.5% | 99.2% | 96.7% | 98.6% | 0 | 0 | 0 | 0 | 0 | > 10 µM | > 10 µM | > 10 µM | > 10 µM | > 10 µM
4 | CC[C@@H](Nc1c(Nc2cccc(C(=O)N(C)C)c2O)c(=O)c1=O)c1ccc(C)o1 [navarixin] | 89.2% | 98.3% | 95.1% | 102% | 105% | 95% | 99.3% | 106% | 99.3% | 91.6% | 97.9% | 87.4% | 93.8% | 94.6% | 99% | 94.9% | 95.3% | 96.6% | 90.2% | 107% | 93.4% | 102% | 98.3% | 98.4% | 103% | 0 | 0 | 0 | 0 | 0 | > 10 µM | > 10 µM | > 10 µM | > 10 µM | > 10 µM
5 | C=CC(=O)Nc1ccc2ncnc(Nc3ccc(OCc4cccc(F)c4)c(Cl)c3)c2c1 [AST-1306] | 98.9% | 80.4% | 40.4% | 32.3% | 4.3% | 93.4% | 105% | 83.3% | 80.6% | 6.1% | 102% | 96.7% | 107% | 92.8% | 48.2% | 99.8% | 97% | 83.7% | 51.8% | 17.7% | 91.4% | 72.7% | 91.5% | 61.3% | 23.4% | 22.6 | 8.3 | 4 | 11.3 | 9.8 | 0.0782 µM | 1.72 µM | 2.06 µM | 0.575 µM | 0.665 µM
6 | CN/C(=N\c1ccc(C2=NNC(=O)CC2C)cc1)NC#N (stereo not given) [siguazodan] | 102% | 100% | 98.9% | 102% | 98.6% | 105% | 97.2% | 97.2% | 96.6% | 90.6% | 114% | 91.1% | 104% | 107% | 105% | 103% | 104% | 104% | 98.9% | 105% | 103% | 103% | 97.6% | 105% | 99.7% | 0 | 0 | 0 | 0 | 0 | > 10 µM | > 10 µM | > 10 µM | > 10 µM | > 10 µM
7 | CCCC(=O)Nc1cccc(NC(=O)c2ccccc2Br)c1 [ML161] | 95.4% | 101% | 89.2% | 101% | 105% | 93.6% | 95.5% | 89.6% | 96.6% | 94% | 91.6% | 98% | 94.9% | 94.2% | 103% | 100% | 96.1% | 103% | 98.9% | 97.7% | 95.3% | 97.7% | 95.8% | 98.8% | 94.2% | 0 | 0 | 0 | 0 | 0 | > 10 µM | > 10 µM | > 10 µM | > 10 µM | > 10 µM
8 | Cc1ccc2c(c1)c1c(n2CCc2ccc(C)nc2)CCN(C)C1 [latrepirdine] | 97.5% | 97.4% | 101% | 103% | 95.4% | 106% | 99.4% | 97.9% | 96% | 91% | 108% | 102% | 118% | 98.8% | 99.7% | 98% | 102% | 104% | 96.5% | 93.6% | 100% | 100% | 97.7% | 95.8% | 93.7% | 0 | 0 | 0 | 0 | 0 | > 10 µM | > 10 µM | > 10 µM | > 10 µM | > 10 µM
9 | O=c1c(-c2ccccc2)c1-c1ccccc1 [diphencyprone] | 105% | 97.6% | 104% | 111% | 122% | 110% | 103% | 114% | 106% | 97.2% | 95.2% | 91.4% | 95.7% | 89.8% | 86% | 101% | 104% | 99.6% | 99.1% | 93.5% | 98.9% | 99.5% | 103% | 98% | 84.2% | 0 | 0 | 0.2 | 0 | 0.5 | > 10 µM | > 10 µM | > 10 µM | > 10 µM | > 10 µM
10 | CN1[C@@H]2CC[C@H]1C[C@@H](OC(=O)c1c[nH]c3ccccc13)C2 [tropisetron] | 100% | 93.8% | 99.9% | 88.6% | 97.6% | 102% | 108% | 101% | 103% | 97.5% | 100% | 101% | 93.1% | 96.7% | 101% | 98.2% | 97.3% | 98.2% | 99.9% | 96.2% | 104% | 103% | 96.8% | 100% | 98.3% | 0 | 0 | 0 | 0 | 0 | > 10 µM | > 10 µM | > 10 µM | > 10 µM | > 10 µM
11 | NC(=O)CN1CCCC1=O [piracetam] | 110% | 97.7% | 112% | 109% | 97.9% | 102% | 91.2% | 98.7% | 96.6% | 102% | 92.1% | 103% | 98% | 98.5% | 105% | 93.3% | 98.3% | 91.7% | 93.3% | 92% | 100% | 102% | 100% | 97.7% | 102% | 0 | 0 | 0 | 0 | 0 | > 10 µM | > 10 µM | > 10 µM | > 10 µM | > 10 µM
12 | CC[C@H]1[C@@H]2C[C@H]3[C@@H]4N(C)c5ccccc5[C@]45C[C@@H]([C@@H]2[C@H]5O)N3[C@@H]1O [ajmaline] | 101% | 108% | 91.9% | 104% | 108% | 101% | 94% | 94.9% | 90.6% | 88% | 92% | 90% | 95% | 105% | 94.7% | 96.1% | 95% | 105% | 99.5% | 88.9% | 96% | 101% | 95.7% | 102% | 97.5% | 0 | 0.1 | 0 | 0 | 0 | > 10 µM | > 10 µM | > 10 µM | > 10 µM | > 10 µM
13 | CCN(CC)c1ccc(C(=C2C=CC(=[N+](CC)CC)C=C2)c2ccccc2)cc1 [brilliant-green] | 94.6% | 101% | 72.4% | 16.2% | 0% | 92.4% | 92.5% | 69.4% | 0.4% | -0.3% | 109% | 97.7% | 58.8% | 5.2% | -0.3% | 96.5% | 97.8% | 94.2% | 6.8% | -0.2% | 93.6% | 95.5% | 47.8% | 0.8% | -0.2% | 18.7 | 21.9 | 22.3 | 17.7 | 24.1 | 0.235 µM | 0.148 µM | 0.128 µM | 0.328 µM | 0.0933 µM
14 | COc1cc(CN2CCN(c3ccc(F)cc3)CC2)cc(OC)c1OC [V-51] | 81.8% | 95.7% | 106% | 105% | 105% | 94.8% | 94.4% | 93.6% | 83.5% | 97.8% | 100% | 98.1% | 93.2% | 100% | 98.8% | 95.9% | 96.5% | 100% | 98.3% | 106% | 100% | 103% | 94.8% | 98.6% | 102% | 0 | 0 | 0 | 0 | 0 | > 10 µM | > 10 µM | > 10 µM | > 10 µM | > 10 µM

Source: the supplement of paper PMC13380429
